According to US5688992A, “O-malonyltryrosyl compounds, O-malonyltryrosyl compound-containing peptides, and use thereof” (The United States of America as represented by the …, priority 1995, dated 1997):
Like-named read-outs stand apart in the source and are kept apart here. Blank lines part the entries; values can stand above or below the molecule they belong to. Square brackets hold non-standard residues; d marks the D form. Peptide text beside a SMILES is read from it. * marks the point of attachment. F2Pmp = N[C@@H](Cc1ccc(C(F)(F)P(=O)(O)O)cc1)C(=O)O; pY = N[C@@H](Cc1ccc(OP(=O)(O)O)cc1)C(=O)O; L‑OMT = L-O-malonyltyrosine; X1 = O=C(O)C(C(=O)O)*

Key:
Src SH2 domain = target: T1, Src SH2 domain (Homo sapiens, UniProt P12931); assay: SH2 domain competition binding assay, Src SH2; settings: X = L-OMT; GST/SH2 fusion vs [125I] hmT pY324 phosphopeptide; read-out: IC50 ± S.E., Src SH2 domain
T1 construct: the Src SH2 domain was paired with hmt pY324
Experimental: (§1) Details of the […] domain competition assay are described by Piccione, E., et al., Biochemistry 32:3197-3202 (1993). Briefly, four distinct assays were used to determine relative SH2 domain affinities for pTyr analogues vs. high affinity phosphopeptide ligands. In each assay a glutathione S-transferase (GST)/SH2 domain fusion protein was paired with an appropriate high-affinity [^125 I]Bolton-Hunter radiolabeled phosphopeptide, and varying concentrations of unlabeled peptides were added as competitors. The C-terminal SH2 domain of PI 3-kinase p85 was paired with IRS-1pY628, GNGDpYMPMSPK (SEQ ID NO. 5) (See Piccione, E., et al., Biochemistry 32:3197-3202 (1993)), the Src SH2 domain was paired with hmt pY324, KEPQpYEEIPIYL (SEQ ID NO. 6) (See Payne, G., et al., Proc. Natl. Acad. Sci. USA 90:4902-4906 (1993), the PLCγ-C SH2 domain was paired with PDGF pY1021, DNDpYIIPLPDPK (SEQ ID NO. 7) (See Piccione, E., et al., Biochemistry 32:3197-3202 (1993)), and the Lck SH2 domain was paired with the hmTpY324 sequence similar to assays conducted on the Src SH2 domain. An underline denotes the position of the [^125 I]Bolton-Hunter modified lysine. […] Following centrifugation for 5 min at 12,000 g, supematant solutions were removed by aspiration and [^125 I]radioactivity associated with the unwashed pellets was determined with a γ-counter.

recombinant PTP 1B = target: T2, recombinant PTP 1B (Homo sapiens, UniProt P18031); assay: Insulin receptor dephosphorylation by recombinant PTP 1B; type: biochemical; settings: 32P-labeled autophosphorylated insulin receptor as substrate; read-out: inhibition constant / IC50 against PTP 1B dephosphorylation of insulin receptor
T2 sequence (P18031 1-435): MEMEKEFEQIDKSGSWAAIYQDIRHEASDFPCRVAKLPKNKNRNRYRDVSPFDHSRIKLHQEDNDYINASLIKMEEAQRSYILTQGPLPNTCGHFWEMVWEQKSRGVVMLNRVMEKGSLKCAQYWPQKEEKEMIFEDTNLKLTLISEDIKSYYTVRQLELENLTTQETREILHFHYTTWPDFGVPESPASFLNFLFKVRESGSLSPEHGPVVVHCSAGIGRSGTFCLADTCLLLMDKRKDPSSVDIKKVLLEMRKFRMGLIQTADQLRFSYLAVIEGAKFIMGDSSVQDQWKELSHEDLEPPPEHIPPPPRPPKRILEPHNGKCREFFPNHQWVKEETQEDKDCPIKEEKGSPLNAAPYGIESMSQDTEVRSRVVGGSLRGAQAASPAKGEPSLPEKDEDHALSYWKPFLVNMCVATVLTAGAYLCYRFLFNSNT
Experimental: WGA-purified human insulin receptors were autophosphorylated with [γ-^32 P]ATP as previously described (Liotta, A.S., et al., J. Biol. Chem. 269:22996-23001 (1994)), and this ^32 P-labeled insulin receptor was used as substrate for the assay of PTP 1B activity, essentially following the method described by Burke et al. (Burke, T. R. Jr., Biochem, Biophys. Res. Commun. 204:129-134 (1994)). In brief, ^32 P-labeled autophosphorylated insulin receptors (10 μg/ml) were incubated with 0.5 μg/ml recombinant PTP 1B at 22° C. in a 100 μl reaction containing 50 mM HEPES, pH 7.5, 0.1 mg/ml BSA, 5 mM DTT, 5 mM EDTA, 0.05% Triton X-100, in the absence or presence of various peptides at the indicated concentrations. […] The ^32 P remaining in the 95 kDa insulin receptor β-subunit was quantified by Betagen counting of the fixed and dried gels.
The peptide Ac-D-A-D-E-OMT-L-amide (SEQ. ID. NO. 8) was then examined for inhibitor potency against PTB-1B dephosphorylation of phosphorylated insulin receptor. […] The ^32 P remaining in the 95 kDa insulin receptor β-subunit was quantified by Betagen counting of the fixed and dried gels. […]

[1] = target: T3, N-terminal SH-PTP2 SH2 domain (Homo sapiens, UniProt Q06124); settings: X = pTyr or L-F2Pmp; previously reported (Xiao 1994); cited from earlier work
T3 sequence (Q06124 6-102 limits assumed): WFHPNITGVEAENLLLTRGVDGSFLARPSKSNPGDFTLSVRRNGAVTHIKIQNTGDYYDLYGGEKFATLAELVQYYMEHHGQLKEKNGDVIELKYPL

[2] = test system: SH-PTP2 mediated mitogenic signaling in rat 1 fibroblasts; settings: Xiao 1994; cited from earlier work
[3] = target: T3, N-terminal SH-PTP2 SH2 domain; assay: SH2 domain competition binding assay, SH-PTP2 N-terminal SH2; settings: X = L-OMT; read-out: IC50 ± S.E., SH-PTP2 (N-terminal) SH2 domain
Grb2 SH2 domain = target: T4, Grb2 SH2 domain (Homo sapiens, UniProt P62993); assay: SH2 domain competition binding assay, Grb2 SH2
T4 construct: against the Grb2 SH2 domain construct

[4] = target: C-terminal SH2 domain of PI 3-kinase p85 (Homo sapiens, UniProt P27986); assay: SH2 domain competition binding assay, PI 3-kinase p85 C-terminal SH2; settings: X = L-OMT; GST/SH2 fusion vs [125I] IRS-1 pY628 phosphopeptide; read-out: IC50 ± S.E., p85 (C-terminal) SH2 domain
Experimental: as §1

IC50 (Src SH2 domain): > 200 µM
Molecule: CC[C@H](C)[C@H](NC(=O)[C@H](CCC(=O)O)NC(=O)[C@H](CCC(=O)O)NC(=O)[C@H](Cc1ccc(OC(C(=O)O)C(=O)O)cc1)NC(=O)[C@H](CCC(N)=O)NC(C)=O)C(=O)N1CCC[C@H]1C(N)=O [peptide no. 7, Ac-Gln-[L-OMT]-Glu-Glu-Ile-Pro-amide] (Ac-QY(X1)EEIP-NH2)

IC50 (recombinant PTP 1B): ~10 µM
Molecule: CC(=O)N[C@@H](CC(=O)O)C(=O)N[C@@H](C)C(=O)N[C@@H](CC(=O)O)C(=O)N[C@@H](CCC(=O)O)C(=O)N[C@@H](Cc1ccc(OC(C(=O)O)C(=O)O)cc1)C(=O)N[C@@H](CC(C)C)C(N)=O [Ac-D-A-D-E-OMT-L-amide, Ac-Asp-Ala-Asp-Glu-[L-OMT]-Leu-amide] (Ac-DADEY(X1)L-NH2)

Molecule: 10 (X = L-F2Pmp): Ac-L-N-X-I-D-L-D-L-V-amide with X = L-F2Pmp in place of L-OMT (Ac-LN[F2Pmp]IDLDLV-NH2; SMILES CC[C@H](C)[C@H](NC(=O)[C@H](Cc1ccc(C(F)(F)P(=O)(O)O)cc1)NC(=O)[C@H](CC(N)=O)NC(=O)[C@H](CC(C)C)NC(C)=O)C(=O)N[C@@H](CC(=O)O)C(=O)N[C@@H](CC(C)C)C(=O)N[C@@H](CC(=O)O)C(=O)N[C@@H](CC(C)C)C(=O)N[C@H](C(N)=O)C(C)C)
IC50 [1]: 23 µM
effect on SH-PTP2 mediated mitogenic signaling [2]: block SH-PTP2 mediated mitogenic signaling

IC50 [3]: 22 µM
Molecule: Ac-Leu-Asn-[L-OMT]-Ile-Asp-Leu-Asp-Leu-Val-amide ({Ac-Leu-Asn-L‑OMT}-IDLDLV-NH2) [peptide no. 9]

activity in Grb2 binding assay (Grb2 SH2 domain): essentially inactive
Molecule: CC[C@H](C)[C@H](NC(=O)[C@H](CC(N)=O)NC(=O)[C@@H](NC(=O)[C@H](Cc1ccc(OC(C(=O)O)C(=O)O)cc1)NC(=O)[C@H](CC(N)=O)NC(C)=O)C(C)C)C(=O)N[C@@H](CCC(=O)O)C(N)=O [peptide no. 8, Ac-Asn-[L-OMT]-Val-Asn-Ile-Glu-amide] (Ac-NY(X1)VNIE-NH2)

Molecule: 10 (X = pTyr): Ac-L-N-X-I-D-L-D-L-V-amide with X = pTyr in place of L-OMT (Ac-LN[pY]IDLDLV-NH2; SMILES CC[C@H](C)[C@H](NC(=O)[C@H](Cc1ccc(OP(=O)(O)O)cc1)NC(=O)[C@H](CC(N)=O)NC(=O)[C@H](CC(C)C)NC(C)=O)C(=O)N[C@@H](CC(=O)O)C(=O)N[C@@H](CC(C)C)C(=O)N[C@@H](CC(=O)O)C(=O)N[C@@H](CC(C)C)C(=O)N[C@H](C(N)=O)C(C)C)
IC50 [1]: 4 µM

IC50 [4]: 14.2 µM
Molecule: CSCC[C@H](NC(=O)[C@@H]1CCCN1C(=O)[C@@H](NC(=O)[C@H](Cc1ccc(OC(C(=O)O)C(=O)O)cc1)NC(=O)[C@H](CC(=O)O)NC(C)=O)C(C)C)C(=O)N[C@@H](CC(C)C)C(N)=O [peptide no. 6, Ac-Asp-[L-OMT]-Val-Pro-Met-Leu-amide] (Ac-DY(X1)VPML-NH2)
